These results are taken from patent publication US20100152188A1, “Novel Heterocyclic Compounds” (priority 2005, published 2010).

Structures are written as SMILES. Like-named read-outs stand apart in the source and are kept apart here.

The subject of one assay is NCIH460. Briefly: Anti-cancer screen (MTT), NCIH460. In kind it is cell-based. Conditions: Homo sapiens, NCI-H460, 48 hours with compound, tested at 0.01-100 µM. The procedure, abridged:
(§1)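 Growth inhibition is measured by MTT reduction after 48 h treatment of cells grown in DMEM with 10% fetal bovine serum. Percent growth uses T0 viability, measured just before dosing, so that net cell kill yields negative values and an LC50.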

The next assay concerns MDAMB-231/U 251. Briefly: Anti-cancer screen (MTT), MDAMB-231/U 251. In kind it is cell-based. Conditions: for CC50: read-out: MDAMB-231/U 251 LC50. The procedure, abridged: as §1
Another assay deals with HDAC. Briefly: HDAC inhibition. It counts as biochemical. As to conditions: for HDAC Inhibition 1 μM: compound at 1 μM; for HDAC Inhibition 10 μM: compound at 10 μM.
Assay [1] concerns NCIH460, HCT116, MDAMB-231/U 251. Kind of assay: Anti-cancer screen, mean GI50 over the cell lines. In kind it is cell-based. As to conditions: in µM. The procedure, abridged:
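HCT116, NCIH460 and U251 cells (5000/well) were seeded for 24 h, then exposed in triplicate to 0.01, 0.1, 1, 10 and 100 µM final compound for 48 h. Viability was read by MTT (3 h, absorbance 570 nm), and percent growth was calculated against untreated controls and a T0 plate read at compound addition.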

The subject of a further assay is HCT116. Briefly: Anti-cancer screen (MTT), HCT116. In kind it is cell-based. Conditions: Homo sapiens, HCT-116, 48 hours with compound, tested at 0.01-100 µM. The procedure, abridged: as §1
The mark [2] stands for this setting: 48 hours with compound, MTT, tested at 0.01-100 µM.

One may read the GI50 as the concentration giving 50% growth inhibition. The term LC50 denotes the concentration lethal to half of the exposed cells or organisms. Take `Cc1ncsc1COC(=O)Nc1nc(CC(=O)NO)cs1` [Example 8, (4-Methyl-1,3-thiazol-5-yl)methyl{4-[2-(hydroxyamino)-2-oxoethyl]-1,3-thiazol-2-yl}carbamate]: in the assay with NCIH460, the GI50 was above 100 µM, the IC (TGI) was above 100 µM and the LC50 is above 100 µM. In the assay with MDAMB-231/U 251 (setting [2]), the GI50 is 0.5 µM, the IC (TGI) is above 100 µM and the CC50 was above 100 µM. In the assay on HDAC, the “HDAC Inhibition 1 μM” value is recorded as 0.96 and the “HDAC Inhibition 10 μM” value is on record as 17.80. Further, the “Mean GI50” value in assay [1] is above 100. Besides, in the assay on HCT116, the GI50 is above 100 µM and the IC (TGI) is above 100 µM. For the same molecule, the CC50 with HCT116 (read-out: HCT116 LC50) was above 100 µM.

As to `O=C(Cc1csc(NC(=O)OCc2nc3ccccc3s2)n1)NO` [Example 9, 1,3-Benzothiazol-2-ylmethyl{4-[2-(hydroxyamino)-2-oxoethyl]-1,3-thiazol-2-yl}carbamate], in the assay with NCIH460, the GI50 was 73 µM, the IC (TGI) is above 100 µM and the LC50 was above 100 µM. The CC50 in the assay on MDAMB-231/U 251 (48 h) is above 100 µM. For the same molecule, in the assay with MDAMB-231/U 251 (setting [2]), the 50% growth inhibitory concentration (GI50) is 38 µM and the IC (TGI) was above 100 µM. In addition, in the assay on HDAC, the “HDAC Inhibition 1 μM” value worked out at 17.52 and the “HDAC Inhibition 10 μM” value came to 46.21. The “Mean GI50” value in assay [1] worked out at 53. For the same molecule, in the assay with HCT116, the GI50 amounted to 48 µM, the IC (TGI) was above 100 µM and the LC50 (concentration giving 50% net cell kill relative to T0) was above 100 µM.

Take `O=C(Nc1nc(CC(=O)N2CCOCC2)cs1)OCc1cccnc1` [Example 10, pyridin-3-ylmethyl[4-(2-morpholin-4-yl-2-oxoethyl)-1,3-thiazol-2-yl]carbamate]: in the assay on NCIH460, the GI50 was found to be 55 µM, the IC (TGI) was above 100 µM and the LC50 was above 100 µM. For the same molecule, the CC50 in the assay on MDAMB-231/U 251 (48 h) was above 100 µM. Besides, in the assay with MDAMB-231/U 251 (setting [2]), the GI50 stood at 0.4 µM and the IC (TGI) was found to be 27 µM. For the same molecule, in the assay on HDAC, the “HDAC Inhibition 1 μM” value is listed as −9.85 and the “HDAC Inhibition 10 μM” value was 0.14. For the same molecule, the “Mean GI50” value in assay [1] stood at 26.7. For the same molecule, in the assay on HCT116, the GI50 was above 100 µM, the IC (TGI) is above 100 µM and the LC50 (concentration giving 50% net cell kill relative to T0) was above 100 µM.

With `O=C(Nc1nc(CC(=O)N2CCCCC2)cs1)OCc1cccnc1` [Example 12, Pyridin-3-ylmethyl[4-(2-oxo-2-piperidin-1-ylethyl)-1,3-thiazol-2-yl]carbamate], in the assay on NCIH460, the GI50 amounted to 50 µM, the IC (TGI) is 100 µM and the LC50 is above 100 µM. Further, in the assay on MDAMB-231/U 251 (48 h), the CC50 is above 100 µM. In the assay on MDAMB-231/U 251 (setting [2]), the GI50 worked out at 50 µM and the IC (TGI) is above 100 µM. Further, the “HDAC Inhibition 10 μM” value in the assay with HDAC amounted to 10.83. Besides, the “Mean GI50” value in assay [1] is listed as 50. Moreover, in the assay on HCT116, the GI50 is above 100 µM, the IC (TGI) was above 100 µM and the LC50 (concentration giving 50% net cell kill relative to T0) was above 100 µM.

Regarding `O=C(Cc1csc(NC(=O)OCc2cccnc2)n1)NC1CCN(Cc2ccccc2)CC1` [Example 17, Pyridin-3-ylmethyl(4-{2-[(1-benzylpiperidin-4-yl)amino]-2-oxoethyl}-1,3-thiazol-2-yl)carbamate], in the assay on NCIH460, the 50% growth inhibitory concentration (GI50) stood at 80 µM, the IC (TGI) was above 100 µM and the LC50 is above 100 µM. For the same molecule, the CC50 in the assay on MDAMB-231/U 251 (48 h) is above 100 µM. In addition, in the assay on MDAMB-231/U 251 (setting [2]), the GI50 worked out at 2.5 µM and the IC (TGI) is 50 µM. In addition, the “HDAC Inhibition 10 μM” value in the assay with HDAC stood at 3.61. Besides, in assay [1], the “Mean GI50” value came to 54.8. Besides, in the assay on HCT116, the GI50 was 82 µM, the IC (TGI) is above 100 µM and the LC50 (concentration giving 50% net cell kill relative to T0) is above 100 µM.

Take `Nc1ccccc1NC(=O)Cc1csc(NC(=O)OCc2cccnc2)n1` [Example 18, Pyridin-3-ylmethyl(4-{2-[(2-aminophenyl)amino]-2-oxoethyl}-1,3-thiazol-2-yl)carbamate]: in the assay on NCIH460, the GI50 is 100 µM, the IC (TGI) was above 100 µM and the LC50 was above 100 µM. Moreover, in the assay with MDAMB-231/U 251 (48 h), the CC50 was above 100 µM. Moreover, in the assay on MDAMB-231/U 251 (setting [2]), the GI50 is 12 µM and the IC (TGI) was above 100 µM. In the assay on HDAC, the “HDAC Inhibition 1 μM” value is 2.19 and the “HDAC Inhibition 10 μM” value was determined as 7.99. For the same molecule, in assay [1], the “Mean GI50” value was above 100. Moreover, in the assay with HCT116, the GI50 was above 100 µM, the IC (TGI) is above 100 µM and the LC50 (concentration giving 50% net cell kill relative to T0) was above 100 µM.

As for `O=C(Cc1csc(NC(=O)OCc2cccnc2)n1)Nc1ccccc1O` [Example 19, Pyridin-3-ylmethyl(4-{2-[(2-hydroxyphenyl)amino]-2-oxoethyl}-1,3-thiazol-2-yl)carbamate], in the assay with NCIH460, the GI50 turned out to be 1 µM, the IC (TGI) was determined as 60 µM and the LC50 is above 100 µM. In addition, the CC50 in the assay on MDAMB-231/U 251 (48 h) is above 100 µM. In addition, in the assay on MDAMB-231/U 251 (setting [2]), the GI50 was 7.6 µM and the IC (TGI) was determined as 80 µM. For the same molecule, the “HDAC Inhibition 10 μM” value with HDAC stood at 0.50. The “Mean GI50” value in assay [1] turned out to be 14.2. In the assay on HCT116, the GI50 stood at 34 µM, the IC (TGI) was above 100 µM and the LC50 (concentration giving 50% net cell kill relative to T0) was above 100 µM.

As for `Nc1ccccc1NC(=O)Cc1csc(NC(=O)OCc2nc3ccccc3s2)n1` [Example 21, 1,3-Benzothiazol-2-ylmethyl(4-{2-[(2-aminophenyl)amino]-2-oxoethyl}-1,3-thiazol-2-yl)carbamate], in the assay on NCIH460, the GI50 worked out at 15 µM, the IC (TGI) was above 100 µM and the LC50 was above 100 µM. Moreover, the CC50 in the assay with MDAMB-231/U 251 (48 h) is above 100 µM. For the same molecule, in the assay on MDAMB-231/U 251 (setting [2]), the GI50 was found to be 4 µM and the IC (TGI) was 9 µM. For the same molecule, in the assay on HDAC, the “HDAC Inhibition 1 μM” value is 4.41 and the “HDAC Inhibition 10 μM” value is reported as 0.57. For the same molecule, the “Mean GI50” value in assay [1] was determined as 9. Besides, in the assay on HCT116, the GI50 stood at 8 µM, the IC (TGI) is above 100 µM and the LC50 (concentration giving 50% net cell kill relative to T0) is above 100 µM.

With `Nc1ccccc1NC(=O)Cc1csc(NC(=O)OCc2nccs2)n1` [Example 23, 1,3-Thiazol-2-ylmethyl(4-{2-[(2-aminophenyl)amino]-2-oxoethyl}-1,3-thiazol-2-yl)carbamate], in the assay on NCIH460, the GI50 is above 100 µM, the IC (TGI) was above 100 µM and the LC50 was above 100 µM. In addition, the CC50 in the assay with MDAMB-231/U 251 (48 h) is above 100 µM. Further, in the assay with MDAMB-231/U 251 (setting [2]), the GI50 was found to be 31 µM and the IC (TGI) is above 100 µM. In addition, in the assay on HDAC, the “HDAC Inhibition 1 μM” value is 11.34 and the “HDAC Inhibition 10 μM” value turned out to be 5.18. Besides, in assay [1], the “Mean GI50” value is recorded as above 100. In the assay on HCT116, the concentration for 50% growth inhibition (GI50) is above 100 µM, the IC (TGI) is above 100 µM and the LC50 (concentration giving 50% net cell kill relative to T0) was above 100 µM.

With `Nc1ccccc1NC(=O)Cc1csc(NC(=O)OCc2ccncc2)n1` [Example 24, Pyridin-4-ylmethyl(4-{2-[(2-aminophenyl)amino]-2-oxoethyl}-1,3-thiazol-2-yl)carbamate], in the assay on NCIH460, the GI50 was above 100 µM, the IC (TGI) was above 100 µM and the LC50 was above 100 µM. Also, in the assay on MDAMB-231/U 251 (48 h), the CC50 was above 100 µM. Besides, in the assay on MDAMB-231/U 251 (setting [2]), the GI50 was above 100 µM and the IC (TGI) was above 100 µM. For the same molecule, in the assay on HDAC, the “HDAC Inhibition 1 μM” value is 1.34 and the “HDAC Inhibition 10 μM” value was 3.17. For the same molecule, the “Mean GI50” value in assay [1] is given as above 100. Also, in the assay on HCT116, the GI50 is above 100 µM, the IC (TGI) was above 100 µM and the LC50 (concentration giving 50% net cell kill relative to T0) is above 100 µM.

As to `O=C(Cc1csc(NC(=O)OCc2ccncc2)n1)NOCc1ccccc1` [Example 25, Pyridin-4-ylmethyl(4-{2-[(benzyloxy)amino]-2-oxoethyl}-1,3-thiazol-2-yl)carbamate], in the assay on NCIH460, the GI50 turned out to be 92 µM, the IC (TGI) is above 100 µM and the LC50 is above 100 µM. The CC50 in the assay with MDAMB-231/U 251 (48 h) is above 100 µM. Also, in the assay on MDAMB-231/U 251 (setting [2]), the GI50 was determined as 85 µM and the IC (TGI) is above 100 µM. Further, in the assay with HDAC, the “HDAC Inhibition 1 μM” value is −0.29 and the “HDAC Inhibition 10 μM” value is 6.62. The “Mean GI50” value in assay [1] amounted to 80.67. Also, in the assay with HCT116, the GI50 stood at 65 µM, the IC (TGI) is above 100 µM and the LC50 (concentration giving 50% net cell kill relative to T0) is above 100 µM.

Usually IC50 stands for the concentration that inhibits the measured activity by half. As for `O=C(NCc1ccc(C(=O)NO)cc1)OCc1ccsc1` [Example 27, 3-Thienylmethyl{4-[(hydroxyamino)carbonyl]benzyl}carbamate], in the assay on NCIH460, the GI50 was 34 µM, the IC (TGI) turned out to be 64 µM and the LC50 worked out at 100 µM. The CC50 in the assay with MDAMB-231/U 251 (48 h) is above 100 µM. Besides, in the assay with MDAMB-231/U 251 (setting [2]), the GI50 was above 100 µM and the IC (TGI) was above 100 µM. Besides, in the assay on HDAC, the IC50 is 0.58 µM, the “HDAC Inhibition 1 μM” value turned out to be 67.65 and the “HDAC Inhibition 10 μM” value is listed as 81.85. In addition, the “Mean GI50” value in assay [1] is 24.9. Further, in the assay on HCT116, the GI50 was determined as 7 µM, the IC (TGI) was 21 µM and the LC50 (concentration giving 50% net cell kill relative to T0) came to 72 µM.
